Read-outs that look alike come from different tables or passages of the source.
What was measured:
Botrytis cinerea = conditions: in vivo
Pyricularia oryzae = assay type: in vivo
Sphaerotheca fuliginea = test: Cucumber powdery mildew preventive test; assay type: in vivo
Description: In a greenhouse, cucumber (variety: Sagamihanshiro) planted in a plastic pot having a diameter of 5 cm was grown to the 3rd to 5th-leaf stage. Spray was carried out in the same manner as in Test example 1, and 3 days after the spray, a conidia suspension prepared from Sphaerotheca fuliginea were inoculated on the leaf surface. After inoculation, the pots were placed in a thermostatic greenhouse (20 to 25° C.), and controlling effects were examined after 7 days from the inoculation. In the examination, a ratio of lesion area occupied per one leaf of cucumber was determined according to the same index as in Test example 1, and the control value and the theoretical value according to Colby's formula were similarly calculated.
Wettable powder prepared in compliance with Comparative Preparation Example 4 containing the compounds indicated in Table 7-9 were sprayed to the cucumber leaves, a conidiospore suspension prepared from Sphaerotheca fuliginea was inoculated onto the plants, and the controlling effects were examined in a manner similar to Test Example 6.

Phytophthora infestans = assay type: in vivo
[1] = tested on: Pseudoperonospora cubensis; test: Cucumber downy mildew preventive test; assay type: in vivo; conditions: Table 8, 7 days after inoculation
Description: In a greenhouse, cucumber (variety: Sagamihanshiro) planted in a plastic pot having a diameter of 5 cm was grown to the 3rd to 5th-leaf stage. Spray was carried out in the same manner as in Test example 1, and after drying the chemical liquid, the pots were transferred into a greenhouse. After 3 days from the spray, a zoosporangium suspension of Pseudoperonospora cubensis was inoculated. After inoculation, the pots were placed in a high-humidity chamber (20 to 25° C.), transferred into a greenhouse on the next day, and controlling effects were examined after 7 days from the inoculation. A ratio of lesion area occupied per one leaf of cucumber was determined according to the same index as in Test example 1, and the control value and the theoretical value according to Colby's formula were similarly calculated.

[2] = Table 3-2, treatment concentration 10 ppm
[3] = Table 3-3, treatment concentration 50 ppm
[4] = Table 6-2, treatment concentration 2 ppm, 5 days after inoculation
[5] = Table 3-3, treatment concentration 10 ppm
[6] = Table 3-5 (Comparative Example 2), treatment concentration 0.4 ppm

CO/N=C(/C1=NOCCO1)c1ccccc1Oc1ncnc(Oc2ccccc2Cl)c1F [Fluoxastrobin (b-51), Fluoxastrobin]
Preventive value (Botrytis cinerea): 40
Preventive value (Pyricularia oryzae; [2]): 60
Control value (Sphaerotheca fuliginea; in vivo): 60

Cc1cc(O)no1 [Hymexazol (b-106)]
Preventive value (Phytophthora infestans; Table 6-2, treatment concentration 250 ppm, 5 days after inoculation): 33
Preventive value ([1]; treatment concentration 250 ppm): 17

CCCCCCCCc1c(CC)nc2ncnn2c1N [Ametoctradin (b-95), Ametoctradin]
Preventive value (Phytophthora infestans; in vivo): 40
Preventive value ([1]; treatment concentration 2 ppm): 50

Cc1ccc(C(C)NC(=O)[C@@H](NC(=O)OC(C)C)C(C)C)cc1 (stereo partly shown) [Iproyalicarb (b-50)]
Preventive value ([1]; treatment concentration 2 ppm): 50

CNC(=O)/C(=N/OC)c1ccccc1COc1cc(C)ccc1C [Dimoxystrobin (b-52), Dimoxystrobin]
Preventive value (Botrytis cinerea): 17
Preventive value (Pyricularia oryzae; [2]): 73
Control value (Sphaerotheca fuliginea; in vivo): 60

Cc1cc(C(F)(F)F)nn1CC(=O)N1CCC(c2nc(C3=NOC(c4c(F)cccc4F)C3)cs2)CC1 (stereo not shown) [Oxathiapiprolin (b-84), Oxathiapiprolin]
Preventive value (Botrytis cinerea): 33
Preventive value (Phytophthora infestans; Table 6-3, treatment concentration 0.0016 ppm, 5 days after inoculation): 67
Preventive value (Sphaerotheca fuliginea; in vivo): 17

CC(C)OC(=O)C(C(=O)OC(C)C)=C1SCCS1 [Isoprothiolane (b-71), Isoprothiolane]
Preventive value (Pyricularia oryzae; [3]): 50
Preventive value (Sphaerotheca fuliginea; in vivo): 40

O=C(NCc1ncc(C(F)(F)F)cc1Cl)c1c(Cl)cccc1Cl [Fluopicolide (b-40), Fluopicolide]
Preventive value (Phytophthora infestans; [4]): 40
Preventive value ([1]; treatment concentration 2 ppm): 67

CC(=O)Oc1c(C)c(C)nc2c(F)cc(C(C)(C)C)cc12 [Tebufloquin (b-64), Tebufloquin]
Preventive value (Pyricularia oryzae; [5]): 73
Preventive value (Sphaerotheca fuliginea; in vivo): 67

O=C1CCc2cccc3c2N1CC3 [Pyroquilon (b-104), Pyroquilon]
Preventive value (Pyricularia oryzae; [3]): 67
Preventive value (Sphaerotheca fuliginea; in vivo): 7

Cc1ccc(NC(=O)c2snnc2C)cc1Cl [Tiadinil (b-45), Tiadinil]
Preventive value (Pyricularia oryzae; [5]): 60
Preventive value (Sphaerotheca fuliginea; in vivo): 40

COP(=S)(OC)Oc1c(Cl)cc(C)cc1Cl [Tolclofos-methyl]
Preventive value (Pyricularia oryzae; in vivo): 33
Preventive value (Sphaerotheca fuliginea; in vivo): 33

N#Cc1sc2c(=O)c3ccccc3c(=O)c=2sc1C#N [Dithianon (b-81), Dithianon]
Preventive value (Botrytis cinerea): 33
Preventive value (Phytophthora infestans; Table 6-3, treatment concentration 2 ppm, 5 days after inoculation): 33

CSC(=O)c1cccc2nnsc12 [Acibenzolar-S-methyl (b-72), Acibenzolar-S-methyl]
Preventive value (Pyricularia oryzae; Table 3-4, group b ingredient alone, treatment concentration 10 + 10 ppm): 60
Preventive value (Sphaerotheca fuliginea; Table 7-7, treatment concentration 2 ppm, 7 days after inoculation): 33

CCn1cc(C(=O)O)c(=O)c2cc3c(cc21)OCO3 [Oxolinic acid]
Preventive value (Botrytis cinerea): 17
Preventive value (Pyricularia oryzae; Table 3-5 (Comparative Example 2), treatment concentration 50 ppm): 33
Preventive value (Sphaerotheca fuliginea; in vivo): 33

C=CCOC1=NS(=O)(=O)c2ccccc21 [Probenazole (b-73), Probenazole]
Preventive value (Pyricularia oryzae; [5]): 60
Preventive value (Sphaerotheca fuliginea; in vivo): 40

CNC(=O)/C(=N/OC)c1ccccc1CO/N=C(C)/C(=N/OC)C(/C)=N/OC [Orysastrobin (b-53), Orysastrobin]
Preventive value (Botrytis cinerea): 47
Preventive value (Pyricularia oryzae; [2]): 60
Control value (Sphaerotheca fuliginea; in vivo): 40

O=C(CO)[C@@H](O)[C@@H](O)[C@H](O)CO [D-tagatose (b-93), D-tagatose]
Preventive value (Botrytis cinerea): 33
Preventive value (Phytophthora infestans; Table 6-3, treatment concentration 5000 ppm, 5 days after inoculation): 40
Preventive value (Sphaerotheca fuliginea; in vivo): 33

CCC1(C(=O)N[C@H](C)c2ccc(Cl)cc2)C(C)C1(Cl)Cl (stereo partly shown) [Carpropamid]
Preventive value (Botrytis cinerea): 17
Preventive value (Pyricularia oryzae; [6]): 67
Preventive value (Sphaerotheca fuliginea; in vivo): 33

C[C@@H](NC(=O)C(C#N)C(C)(C)C)c1ccc(Cl)cc1Cl (stereo partly shown) [Diclocymet]
Preventive value (Botrytis cinerea): 17
Preventive value (Pyricularia oryzae; [6]): 67
Preventive value (Sphaerotheca fuliginea; in vivo): 40

Cc1ccc(C(C)NC(=O)[C@@H](NC(=O)OC(C)C)C(C)C)cc1 (stereo partly shown) [Iprovalicarb (b-50), Iprovalicarb]
Preventive value (Phytophthora infestans; [4]): 50

O=C(Nc1ccccc1)N(Cc1ccc(Cl)cc1)C1CCCC1 [Pencycuron (b-76), Pencycuron]
Preventive value (Pyricularia oryzae; Table 3-3, treatment concentration 250 ppm): 40
Preventive value (Sphaerotheca fuliginea; in vivo): 33

Cc1cc(C)nc(Nc2ccccc2)n1 [Pyrimethanil (b-62), Pyrimethanil]
Preventive value (Botrytis cinerea): 33
Preventive value (Pyricularia oryzae; Table 3-4, group b ingredient alone, treatment concentration printed 10 + 50 ppm): 33
